Laboratory results from PubChem BioAssay AID1224920 (Broad Institute, 2016).
Several values for one entry are separate records, joined by “and”; a condition that tells them apart may be missing. Equal entries are not always repeated.

Test system: Clostridium difficile clinical isolate growth, OD600, 24 h
Assay: growth modulation of Clostridium difficile isolate – OD600, 9-point, retest, dose response (AID 1224920);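 further: inhibitors lower culture turbidity so OD600 falls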

N#Cc1cccc(-c2ccc(C3[C@H]4CNC[C@@H]3N4Cc3ccc(F)cc3)cc2)c1 (some centres not stated)
IC50: 29.4 µM

COc1ccc(-c2ccc(C3[C@@H]4CN(Cc5ccccn5)C[C@H]3N4)cc2)cc1 (some centres not stated)
IC50: 70.1 µM

O=C(C[C@H]1CC[C@@H]2[C@H](COC[C@H](O)CN2C(=O)Nc2ccc(C(F)(F)F)cc2)O1)NC1Cc2ccccc2C1
IC50: 36.6 µM

O=C(Nc1ccccc1F)N1CCCCN2[C@H](CO)[C@H](c3ccc(/C=C/c4ccccc4)cc3)[C@H]2C1
IC50: 10.4 µM

COc1cccc(-c2ccc(C3[C@@H]4CN(Cc5cccc(F)c5)C[C@H]3N4)cc2)c1 (some centres not stated)
IC50: 9.52 µM and 7.62 µM

COc1cccc(CN2C[C@@H]3N[C@H](C2)C3c2ccc(-c3cccc(C#N)c3)cc2)c1 (some centres not stated)
IC50: 75.5 µM and 30.6 µM

COc1ccc(C#Cc2ccc([C@@H]3[C@@H](CO)N4CCCCN(Cc5ccccc5F)C[C@@H]34)cc2)cc1
IC50: 25.4 µM

COc1ccc(NC(=O)N2CCCCN3[C@@H](CO)[C@@H](c4ccc(C#Cc5ccccc5)cc4)[C@@H]3C2)cc1
IC50: 16.2 µM

COc1cc(CN2C[C@@H]3N[C@H](C2)C3c2ccc(-c3ccc(C#N)cc3)cc2)cc(OC)c1 (some centres not stated)
IC50: 38.7 µM

c1ccc(CN2C[C@@H]3N[C@H](C2)C3c2ccc(-c3ccccc3)cc2)cc1 (some centres not stated)
IC50: 18.9 µM and 26.2 µM

O=C(Nc1ccc(F)cc1)N1CCCCN2[C@H](CO)[C@H](c3ccc(-c4cccc(F)c4)cc3)[C@H]2C1
IC50: 70.3 µM

O=C(c1ccc(F)cc1)N1CC(=O)N2[C@H](CO)[C@H](c3ccc(C#CCC4CCCC4)cc3)[C@H]2C1
IC50: 81.6 µM

C/C=C/c1ccc(C2[C@H]3CNC[C@@H]2N3C(=O)Nc2ccc(C(F)(F)F)cc2)cc1 (some centres not stated)
IC50: 12 µM

CCCNC(=O)C[C@@H]1CC[C@@H]2[C@H](COC[C@H](O)CN2C(=O)Nc2ccc(Cl)c(Cl)c2)O1
IC50: 12 µM

O=C(C1CCCCC1)N1C[C@@H]2N[C@H](C1)C2c1ccc(-c2cccc(F)c2)cc1 (some centres not stated)
IC50: 67.8 µM

O=C(Nc1cccc(F)c1)N1CCCCN2[C@@H](CO)[C@H](c3ccc(-c4ccccc4F)cc3)[C@@H]2C1
IC50: 33.6 µM

O=C(Nc1ccccc1)N1CCCCN2[C@@H](CO)[C@@H](c3ccc(-c4ccccc4F)cc3)[C@@H]2C1
IC50: 27.9 µM

Cc1ccccc1-c1ccc([C@@H]2[C@H](CO)N3CCCCN(C(=O)Nc4cccc(F)c4)C[C@@H]23)cc1
IC50: 14.7 µM

COc1cc(CN2[C@@H]3CNC[C@H]2C3c2ccc(/C=C/c3ccccc3)cc2)cc(OC)c1 (some centres not stated)
IC50: 12.2 µM

Cc1ccccc1-c1ccc(C2[C@@H]3CN(S(=O)(=O)c4ccccc4)C[C@H]2N3)cc1 (some centres not stated)
IC50: 56.1 µM

O=C(Nc1cccc(Cl)c1)N1[C@@H]2CNC[C@H]1C2c1ccc(-c2ccccc2)cc1 (some centres not stated)
IC50: 44.8 µM and 74.3 µM

O=C(Nc1cccc(F)c1)N1CCCCN2[C@H](CO)[C@H](c3ccc(C#CC4CC4)cc3)[C@H]2C1
IC50: 47.6 µM

COc1cc(CN2[C@@H]3CNC[C@H]2C3c2ccc(-c3ccccc3C)cc2)cc(OC)c1 (some centres not stated)
IC50: 18.8 µM

Cc1ccccc1-c1ccc(C2[C@@H]3CN(C(=O)Cc4ccccc4)C[C@H]2N3)cc1 (some centres not stated)
IC50: 62.1 µM and 68.3 µM

Cc1cccc(-c2ccc([C@H]3[C@H](CO)N4CCCCN(CCC(F)(F)F)C[C@@H]34)cc2)c1
IC50: 68.9 µM

COc1cc(CN2C[C@@H]3N[C@H](C2)C3c2ccc(-c3ccccc3C)cc2)cc(OC)c1 (some centres not stated)
IC50: 18.8 µM and 13.7 µM

O=C(Nc1ccc(C(F)(F)F)cc1)N1C[C@@H]2N[C@H](C1)C2c1ccc(-c2ccccc2)cc1 (some centres not stated)
IC50: 3.18 µM and 4.52 µM

N#Cc1ccc(-c2ccc(C3[C@@H]4CN(Cc5ccccc5F)C[C@H]3N4)cc2)cc1 (some centres not stated)
IC50: 35.8 µM and 26.1 µM

CCNC(=O)C[C@@H]1CC[C@H]2[C@@H](COC[C@@H](O)CN2C(=O)Nc2ccc(C(F)(F)F)cc2)O1
IC50: 12.2 µM

Fc1ccc(-c2ccc(C3[C@@H]4CN(Cc5nccs5)C[C@H]3N4)cc2)cc1 (some centres not stated)
IC50: 63 µM

Cc1ccccc1-c1ccc([C@H]2[C@@H](CO)N3CCCCN(C(=O)Nc4ccc(F)cc4)C[C@H]23)cc1
IC50: 27.4 µM

C(=C\c1ccc(C2[C@@H]3CN(Cc4nccs4)C[C@H]2N3)cc1)/c1ccccc1 (some centres not stated)
IC50: 16.7 µM and 67.5 µM

O=C(Nc1ccc(F)cc1)N1CCCCN2[C@@H](CO)[C@@H](c3ccc(-c4ccccc4F)cc3)[C@@H]2C1
IC50: 35 µM

CCNC(=O)C[C@@H]1CC[C@@H]2[C@H](COC[C@H](O)CN2C(=O)Nc2ccc(C(F)(F)F)cc2)O1
IC50: 16.1 µM

O=C(Nc1ccc(C(F)(F)F)cc1)N1[C@@H]2CNC[C@H]1C2c1ccc(/C=C/c2ccccc2)cc1 (some centres not stated)
IC50: 19.5 µM and 4.14 µM

CCCN(C)C[C@@H]1OCCCC[C@@H](C)Oc2ccc(NC(=O)Nc3ccc(C(F)(F)F)cc3)cc2C(=O)N([C@H](C)CO)C[C@H]1C
IC50: 31.6 µM

CCNC(=O)C[C@@H]1CC[C@@H]2[C@H](COC[C@@H](O)CN2C(=O)Nc2ccc(C(F)(F)F)cc2)O1
IC50: 31.6 µM

COc1ccc(S(=O)(=O)N2CCCCN3[C@@H](CO)[C@@H](c4ccc(C#CCC(C)C)cc4)[C@@H]3C2)cc1
IC50: 13.6 µM

FC(F)(F)c1cccc(CN2[C@@H]3CNC[C@H]2[C@@H]3c2ccc(-c3cccnc3)cc2)c1
IC50: 103 µM

COc1ccc(NC(=O)N2CCCCN3[C@H](CO)[C@@H](c4ccc(C#Cc5ccccc5)cc4)[C@H]3C2)cc1
IC50: 25.7 µM

COc1ccccc1CN1C[C@@H]2N[C@H](C1)C2c1ccc(/C=C/c2ccccc2)cc1 (some centres not stated)
IC50: 3.7 µM and 19 µM

Cc1ccc(S(=O)(=O)N2[C@@H]3CNC[C@H]2C3c2ccc(-c3cccc(F)c3)cc2)cc1 (some centres not stated)
IC50: 52.3 µM
